Holding throughout (assay): kinase profiling panel
Holding throughout (format): biochemical

One assay has as its target T1, BRSK1 (Homo sapiens, UniProt Q8TDC3).
T1 sequence (Q8TDC3 1-778): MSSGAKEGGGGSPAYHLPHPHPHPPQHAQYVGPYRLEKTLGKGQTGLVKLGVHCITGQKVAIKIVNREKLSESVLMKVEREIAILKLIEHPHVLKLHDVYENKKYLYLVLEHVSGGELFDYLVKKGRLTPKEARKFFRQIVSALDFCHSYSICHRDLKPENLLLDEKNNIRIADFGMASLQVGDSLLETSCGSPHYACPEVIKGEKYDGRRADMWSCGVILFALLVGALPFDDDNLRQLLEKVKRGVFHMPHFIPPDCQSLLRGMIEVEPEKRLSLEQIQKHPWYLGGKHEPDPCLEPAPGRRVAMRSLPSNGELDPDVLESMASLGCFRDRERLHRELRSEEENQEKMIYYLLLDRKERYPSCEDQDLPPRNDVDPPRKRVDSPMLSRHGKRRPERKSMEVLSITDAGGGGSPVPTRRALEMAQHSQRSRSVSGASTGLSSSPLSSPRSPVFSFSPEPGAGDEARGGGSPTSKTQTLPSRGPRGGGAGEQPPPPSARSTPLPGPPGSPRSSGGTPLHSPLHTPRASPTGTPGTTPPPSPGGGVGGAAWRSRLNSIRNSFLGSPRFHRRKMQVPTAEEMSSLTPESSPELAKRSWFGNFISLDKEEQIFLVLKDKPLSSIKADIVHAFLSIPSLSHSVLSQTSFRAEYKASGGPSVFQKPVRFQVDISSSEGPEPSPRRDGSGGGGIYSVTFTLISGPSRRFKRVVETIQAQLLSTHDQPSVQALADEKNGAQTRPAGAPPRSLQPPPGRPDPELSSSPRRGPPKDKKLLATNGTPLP
As to conditions: read-out: % Activity Remaining. The source says:
(§1) Protein kinase profiling against a Dundee panel of 140 protein kinases was undertaken at the International Centre for Protein Kinase Profiling. The result for each kinase was presented as a mean kinase activity of the reaction taken in triplicate relative to a control sample treated with DMSO. Assay conditions and abbreviations are available at http://www.kinase-screen.mrc.ac.uk.

For another assay, the target named is BTK (Homo sapiens, UniProt Q06187). The following applies: read-out: % Activity Remaining.
Excerpt: as §1

The target in a further assay is DYRK1A (Homo sapiens, UniProt Q13627). The following applies: read-out: % Activity Remaining.
Excerpt: as §1

In another assay the target is T2, EPH-B3 (Homo sapiens, UniProt P54753).
T2 sequence (P54753 34-998): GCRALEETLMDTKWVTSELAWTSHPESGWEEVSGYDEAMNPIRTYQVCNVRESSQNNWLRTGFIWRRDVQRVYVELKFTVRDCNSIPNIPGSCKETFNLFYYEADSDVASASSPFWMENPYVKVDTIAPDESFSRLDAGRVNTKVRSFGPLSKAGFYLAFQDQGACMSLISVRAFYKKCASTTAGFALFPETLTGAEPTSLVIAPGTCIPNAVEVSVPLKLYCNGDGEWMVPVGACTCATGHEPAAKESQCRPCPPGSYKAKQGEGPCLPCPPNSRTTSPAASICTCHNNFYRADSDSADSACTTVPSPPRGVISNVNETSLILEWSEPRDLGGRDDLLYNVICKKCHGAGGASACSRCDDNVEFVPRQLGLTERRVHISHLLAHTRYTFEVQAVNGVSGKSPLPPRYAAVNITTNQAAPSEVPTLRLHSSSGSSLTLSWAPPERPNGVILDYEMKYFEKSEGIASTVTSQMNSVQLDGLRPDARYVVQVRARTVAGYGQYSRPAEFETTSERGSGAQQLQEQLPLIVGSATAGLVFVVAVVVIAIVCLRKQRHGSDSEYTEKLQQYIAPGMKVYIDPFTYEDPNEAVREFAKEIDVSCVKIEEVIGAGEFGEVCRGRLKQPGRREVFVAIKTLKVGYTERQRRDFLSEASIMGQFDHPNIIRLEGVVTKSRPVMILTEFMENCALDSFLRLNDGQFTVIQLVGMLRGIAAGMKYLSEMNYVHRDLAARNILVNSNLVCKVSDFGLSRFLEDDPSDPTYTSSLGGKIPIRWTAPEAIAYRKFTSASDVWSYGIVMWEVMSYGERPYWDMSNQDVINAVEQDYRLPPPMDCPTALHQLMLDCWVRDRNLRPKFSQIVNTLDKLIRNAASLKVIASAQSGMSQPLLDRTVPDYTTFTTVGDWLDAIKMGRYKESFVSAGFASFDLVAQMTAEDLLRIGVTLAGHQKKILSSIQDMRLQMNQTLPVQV
The following applies: read-out: % Activity Remaining.
Excerpt: as §1

In another assay the target is ERK1 (Homo sapiens, UniProt P27361). As to conditions: read-out: % Activity Remaining.
Excerpt: as §1

The next assay concerns the target ERK2 (Homo sapiens, UniProt P28482). As to conditions: read-out: % Activity Remaining.
Excerpt: as §1

Another assay addresses HIPK2 (Homo sapiens, UniProt Q9H2X6). The following applies: read-out: % Activity Remaining.
Excerpt: as §1

The next assay has as its target MAP4K5 (Homo sapiens, UniProt Q9Y4K4). As to conditions: read-out: % Activity Remaining.
Excerpt: as §1

The target of a further assay is PDGFRA (Homo sapiens, UniProt P16234). As to conditions: read-out: % Activity Remaining.
Excerpt: as §1

The target in another assay is PIM1 (Homo sapiens, UniProt P11309). The following applies: read-out: % Activity Remaining.
Excerpt: as §1

The target in another assay is SmMLCK (Homo sapiens, UniProt Q15746).
Excerpt: as §1

The next assay concerns the target p38 beta MAPK (Homo sapiens, UniProt Q15759). The following applies: read-out: % Activity Remaining.
Excerpt: as §1

Each structure is given as a SMILES string. Read-outs that look alike come from different tables or passages of the source.

Sequence of BTK (Q06187 whole entry): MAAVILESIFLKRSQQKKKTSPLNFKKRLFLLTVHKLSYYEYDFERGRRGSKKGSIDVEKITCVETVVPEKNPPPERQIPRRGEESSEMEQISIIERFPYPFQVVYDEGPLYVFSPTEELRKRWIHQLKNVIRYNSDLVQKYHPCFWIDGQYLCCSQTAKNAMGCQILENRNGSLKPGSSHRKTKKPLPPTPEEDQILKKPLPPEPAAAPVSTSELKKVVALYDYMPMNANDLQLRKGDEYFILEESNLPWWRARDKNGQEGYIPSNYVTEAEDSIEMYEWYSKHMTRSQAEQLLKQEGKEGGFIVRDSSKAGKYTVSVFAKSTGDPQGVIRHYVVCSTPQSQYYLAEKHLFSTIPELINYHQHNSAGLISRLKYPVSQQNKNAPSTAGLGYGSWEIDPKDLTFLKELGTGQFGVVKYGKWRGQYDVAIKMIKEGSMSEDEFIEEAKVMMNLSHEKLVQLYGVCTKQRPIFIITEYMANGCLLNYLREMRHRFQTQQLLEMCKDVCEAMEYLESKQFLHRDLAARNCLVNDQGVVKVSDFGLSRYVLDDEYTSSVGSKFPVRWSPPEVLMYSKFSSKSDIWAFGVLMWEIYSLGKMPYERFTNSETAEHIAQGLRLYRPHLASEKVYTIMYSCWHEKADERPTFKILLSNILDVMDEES
Sequence of ERK2 (P28482 whole entry): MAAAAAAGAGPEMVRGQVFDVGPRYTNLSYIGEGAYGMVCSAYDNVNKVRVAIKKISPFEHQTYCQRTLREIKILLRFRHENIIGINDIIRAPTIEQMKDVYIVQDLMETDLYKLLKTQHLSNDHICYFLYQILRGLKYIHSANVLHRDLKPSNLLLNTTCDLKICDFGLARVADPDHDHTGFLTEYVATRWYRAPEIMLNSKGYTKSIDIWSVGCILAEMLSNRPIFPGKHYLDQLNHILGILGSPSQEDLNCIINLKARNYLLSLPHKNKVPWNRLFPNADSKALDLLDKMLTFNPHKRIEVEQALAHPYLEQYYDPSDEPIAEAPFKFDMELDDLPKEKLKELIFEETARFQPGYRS
Sequence of PIM1 (P11309 whole entry): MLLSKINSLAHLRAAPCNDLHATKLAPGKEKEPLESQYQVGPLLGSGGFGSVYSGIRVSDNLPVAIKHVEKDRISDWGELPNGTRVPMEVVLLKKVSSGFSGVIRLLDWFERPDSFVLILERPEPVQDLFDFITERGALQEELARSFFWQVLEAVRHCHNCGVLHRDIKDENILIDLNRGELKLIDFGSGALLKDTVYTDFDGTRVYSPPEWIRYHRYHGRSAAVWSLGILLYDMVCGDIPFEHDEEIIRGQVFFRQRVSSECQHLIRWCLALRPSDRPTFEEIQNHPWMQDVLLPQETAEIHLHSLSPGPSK
Sequence of p38 beta MAPK (Q15759 whole entry): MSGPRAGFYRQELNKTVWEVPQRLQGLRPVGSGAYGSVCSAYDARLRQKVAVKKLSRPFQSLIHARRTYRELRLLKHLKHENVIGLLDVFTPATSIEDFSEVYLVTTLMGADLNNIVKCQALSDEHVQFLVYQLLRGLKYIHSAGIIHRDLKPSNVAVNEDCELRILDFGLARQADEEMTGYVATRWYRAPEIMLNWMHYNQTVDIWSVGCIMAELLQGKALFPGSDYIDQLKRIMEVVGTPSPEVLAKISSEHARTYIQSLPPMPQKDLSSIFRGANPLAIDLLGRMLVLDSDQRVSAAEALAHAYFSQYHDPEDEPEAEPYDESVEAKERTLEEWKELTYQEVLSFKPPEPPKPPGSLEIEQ
Sequence of SmMLCK (Q15746 923-1914): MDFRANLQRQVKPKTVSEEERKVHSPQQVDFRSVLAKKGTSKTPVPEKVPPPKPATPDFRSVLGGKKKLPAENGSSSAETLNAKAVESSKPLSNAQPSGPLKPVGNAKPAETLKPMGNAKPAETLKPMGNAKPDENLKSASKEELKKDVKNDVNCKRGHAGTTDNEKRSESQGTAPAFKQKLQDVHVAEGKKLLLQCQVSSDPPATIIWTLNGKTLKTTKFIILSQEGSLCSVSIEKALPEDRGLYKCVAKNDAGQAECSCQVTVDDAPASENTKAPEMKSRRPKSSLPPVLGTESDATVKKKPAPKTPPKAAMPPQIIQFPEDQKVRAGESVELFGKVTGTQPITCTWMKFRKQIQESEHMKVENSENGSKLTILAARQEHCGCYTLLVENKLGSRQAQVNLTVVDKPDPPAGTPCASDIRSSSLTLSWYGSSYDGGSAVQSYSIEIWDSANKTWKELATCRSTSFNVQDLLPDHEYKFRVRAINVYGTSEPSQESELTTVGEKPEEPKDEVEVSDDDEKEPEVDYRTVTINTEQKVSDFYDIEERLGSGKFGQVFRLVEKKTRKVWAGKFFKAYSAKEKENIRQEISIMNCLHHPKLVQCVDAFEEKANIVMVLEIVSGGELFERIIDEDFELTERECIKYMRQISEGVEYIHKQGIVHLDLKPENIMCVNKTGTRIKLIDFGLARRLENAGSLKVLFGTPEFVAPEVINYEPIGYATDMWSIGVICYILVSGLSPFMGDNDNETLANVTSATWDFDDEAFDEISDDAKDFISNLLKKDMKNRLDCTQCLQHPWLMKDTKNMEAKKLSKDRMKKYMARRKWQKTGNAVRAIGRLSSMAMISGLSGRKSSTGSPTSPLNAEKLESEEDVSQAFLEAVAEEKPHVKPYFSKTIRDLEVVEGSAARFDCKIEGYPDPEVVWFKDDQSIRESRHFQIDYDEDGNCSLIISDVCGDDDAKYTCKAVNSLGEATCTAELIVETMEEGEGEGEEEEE
Sequence of HIPK2 (Q9H2X6 whole entry): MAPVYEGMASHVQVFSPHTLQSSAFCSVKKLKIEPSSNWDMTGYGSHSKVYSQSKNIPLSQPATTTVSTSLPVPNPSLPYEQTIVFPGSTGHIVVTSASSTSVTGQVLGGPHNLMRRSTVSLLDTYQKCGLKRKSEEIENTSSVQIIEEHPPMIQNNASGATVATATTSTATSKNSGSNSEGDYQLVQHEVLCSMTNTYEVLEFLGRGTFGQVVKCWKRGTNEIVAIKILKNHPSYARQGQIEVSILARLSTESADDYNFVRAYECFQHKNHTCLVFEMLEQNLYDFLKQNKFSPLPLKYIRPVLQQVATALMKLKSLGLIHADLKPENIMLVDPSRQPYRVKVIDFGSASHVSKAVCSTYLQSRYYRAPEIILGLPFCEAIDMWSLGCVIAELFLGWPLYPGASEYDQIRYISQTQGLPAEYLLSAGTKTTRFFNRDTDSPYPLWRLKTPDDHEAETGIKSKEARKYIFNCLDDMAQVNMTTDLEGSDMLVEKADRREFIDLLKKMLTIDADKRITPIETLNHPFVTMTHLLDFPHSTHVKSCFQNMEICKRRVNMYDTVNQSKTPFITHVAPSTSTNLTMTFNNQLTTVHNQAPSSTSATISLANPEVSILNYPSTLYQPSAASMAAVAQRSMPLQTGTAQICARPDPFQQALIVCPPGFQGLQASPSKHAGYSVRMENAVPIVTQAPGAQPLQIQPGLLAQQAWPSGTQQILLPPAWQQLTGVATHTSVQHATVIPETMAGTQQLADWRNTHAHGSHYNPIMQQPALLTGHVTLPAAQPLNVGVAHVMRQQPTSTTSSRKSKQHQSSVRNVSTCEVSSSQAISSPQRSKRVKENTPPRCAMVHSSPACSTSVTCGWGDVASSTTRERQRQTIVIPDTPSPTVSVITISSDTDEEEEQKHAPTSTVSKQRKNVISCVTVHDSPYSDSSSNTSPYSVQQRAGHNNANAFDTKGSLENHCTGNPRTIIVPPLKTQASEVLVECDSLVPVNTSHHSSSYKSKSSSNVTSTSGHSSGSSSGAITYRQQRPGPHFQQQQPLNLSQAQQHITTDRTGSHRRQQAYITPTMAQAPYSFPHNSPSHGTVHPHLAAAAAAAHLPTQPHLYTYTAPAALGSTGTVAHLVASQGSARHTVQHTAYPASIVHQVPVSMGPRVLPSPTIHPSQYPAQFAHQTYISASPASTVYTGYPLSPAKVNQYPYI
Sequence of MAP4K5 (Q9Y4K4 whole entry): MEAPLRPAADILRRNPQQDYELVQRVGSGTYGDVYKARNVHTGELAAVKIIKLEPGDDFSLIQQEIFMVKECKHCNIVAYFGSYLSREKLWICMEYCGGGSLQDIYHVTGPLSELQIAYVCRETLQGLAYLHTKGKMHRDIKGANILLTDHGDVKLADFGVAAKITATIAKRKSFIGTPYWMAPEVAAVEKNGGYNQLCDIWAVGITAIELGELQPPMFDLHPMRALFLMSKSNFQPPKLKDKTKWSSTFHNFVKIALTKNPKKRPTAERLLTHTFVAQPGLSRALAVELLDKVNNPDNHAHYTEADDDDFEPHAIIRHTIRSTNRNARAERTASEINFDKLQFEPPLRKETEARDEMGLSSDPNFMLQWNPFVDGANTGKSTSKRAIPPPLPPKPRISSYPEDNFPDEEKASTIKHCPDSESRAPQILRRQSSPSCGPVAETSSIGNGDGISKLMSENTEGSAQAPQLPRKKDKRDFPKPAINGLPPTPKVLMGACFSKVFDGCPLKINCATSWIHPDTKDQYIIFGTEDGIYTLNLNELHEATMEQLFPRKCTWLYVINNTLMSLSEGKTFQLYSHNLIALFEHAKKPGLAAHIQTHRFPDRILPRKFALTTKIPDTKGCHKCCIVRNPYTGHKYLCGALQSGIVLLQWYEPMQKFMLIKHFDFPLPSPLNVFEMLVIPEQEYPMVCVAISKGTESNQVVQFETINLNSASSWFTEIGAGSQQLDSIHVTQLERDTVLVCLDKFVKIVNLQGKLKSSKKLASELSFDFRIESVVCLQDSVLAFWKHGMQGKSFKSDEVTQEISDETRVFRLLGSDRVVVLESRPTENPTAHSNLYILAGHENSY

`COc1ccc(Cl)c(S(=O)(=O)Nc2ccc(-c3nc(OC[C@H]4CNCCO4)c4c(C)n[nH]c4n3)cc2)c1` [290-R, reference compound]: the remaining activity at 1 µM stood at 95% on BRSK1; 91% on BTK; 103% on DYRK1A; 104% on EPH-B3; 115% on ERK1; 109% at ERK2. Further, the remaining activity at 1 µM stood at 50% on HIPK2; 19% on MAP4K5; 91% at PDGFRA; 83% on PIM1; 23% at SmMLCK; 99% at p38 beta MAPK.

`Cc1ccc(F)c(S(=O)(=O)Nc2ccc(-c3nc(OC[C@H]4CNCCO4)c4cn[nH]c4n3)cc2)c1` [308-R, reference compound]: the remaining activity at 1 µM came to 106% on BRSK1; 59% on BTK; 81% at DYRK1A; 64% at EPH-B3; 106% at ERK1; 110% at ERK2. Besides, the remaining activity at 1 µM was 47% on HIPK2; 63% at MAP4K5; 115% on PDGFRA; 104% at PIM1; 74% on SmMLCK; 116% on p38 beta MAPK.

On to `Cc1ccc(F)c(S(=O)(=O)Nc2ccc(-c3nc(OC[C@H]4CN(CCCCCCOCCOCCOCC(=O)N[C@H](C(=O)N5C[C@H](O)C[C@H]5C(=O)NCc5ccc(-c6scnc6C)cc5)C(C)(C)C)CCO4)c4cn[nH]c4n3)cc2)c1` [SGK3-PROTAC1], for which the remaining activity at 1 µM at BRSK1 (1 µM) was 108%; at BTK (1 µM), 97%; at DYRK1A (1 µM), 105%; at EPH-B3 (1 µM), 92%; at ERK1 (1 µM), 103%; on ERK2 (1 µM), 104%. Moreover, the remaining activity at 1 µM at HIPK2 (1 µM) turned out to be 109%; on MAP4K5 (1 µM), 99%; at PDGFRA (1 µM), 101%; at PIM1 (1 µM) it was 94%; at SmMLCK it was 53%; at p38 beta MAPK (1 µM), 107%.

Turning to `Cc1ccc(F)c(S(=O)(=O)Nc2ccc(-c3nc(OC[C@H]4CN(CCCCCCOCCOCCOCC(=O)N[C@H](C(=O)N5C[C@@H](O)C[C@H]5C(=O)NCc5ccc(-c6scnc6C)cc5)C(C)(C)C)CCO4)c4cn[nH]c4n3)cc2)c1` [cisSGK3-PROTAC1], the remaining activity at 1 µM at BRSK1 (1 µM) was 106%; on BTK (1 µM), 91%; at DYRK1A (1 µM), 99%; on EPH-B3 (1 µM), 104%; at ERK1 (1 µM) it was 101%; at ERK2 (1 µM), 95%. Besides, the remaining activity at 1 µM at HIPK2 (1 µM) is 100%; on MAP4K5 (1 µM), 101%; at PDGFRA (1 µM), 95%; on PIM1 (1 µM), 97%; at SmMLCK, 71%; at p38 beta MAPK (1 µM), 112%.

Broadly, the remaining activity is the signal under treatment as a percentage of the control signal.

The values are drawn from PMC6757289, “Design and Characterization of SGK3-PROTAC1, an Isoform Specific SGK3 Kinase PROTAC Degrader” (ACS Chemical Biology, 2019).
